# Values quoted from earlier work as cited in patent US11571414B2, “Methods of treating respiratory illnesses, alleviating inflammation and visceral pain, and alleviating opioid addiction while suppressing withdrawal symptoms” (priority 2019, dated 2023).
# Test system: μ-opioid receptor and the nociception receptor
# Conditions: nonhuman primates
compound,measurement,value
CC(C)C1CCC(N2CCC3(CC2)C(=O)N(CCNS(N)(=O)=O)Cc2ccccc23)CC1 (centres unmarked) [AT-121],addictive effects,suppresses the addictive effects
same,analgesic effects,morphine-like analgesic effects
